These results are taken from a melting point compilation (Tetko et al.; mined from patent text by program, amines drawn as free bases though some values may be those of a salt).

As a reminder, the melting point is the temperature, or range, at which the solid turns liquid.

`N#Cc1cc(NC(=O)c2cccn2-c2ccc(F)cc2)ccc1N1CCCCC1`: the melting point lay in the range of 158 to 159 °C.
The compound `Cc1c(C=NO)c2cc(F)ccc2n1-c1ccc(OCc2ccccc2)cc1` came in with a melting point of 183 to 185 °C.
Compound `CCN(CC)CCn1nc2c3c(cccc31)Sc1ccccc1-2` gave a melting point of 49 to 50.5 °C.
As for `O=CNc1nc(OCOC(=O)C2CCCC2)ncc1F`, the figure is 76 to 79 °C; as for `COCn1c(-c2nccs2)cc2cccc(NS(=O)(=O)c3cccs3)c21`, 95 to 97 °C; as for `Cc1nc2n(c(=O)c1C(N)=O)C(C)CCC2=NNc1ccccc1` (stereo not given), 235 to 237 °C.
Turning to `CCCCc1nc(Cl)c(CO)n1Cc1ccc(NC(=O)C(NC(=O)OC(C)(C)C)C(=O)O)cc1` (racemic), the melting point is 144 to 147 °C.
With `Cc1c(NC(=O)c2ccc(C(C)(C)C)cc2)cccc1-c1cn(C)c(=O)c(Nc2ccc(C(C(=O)O)N(C)C(C)C)cc2)n1` (stereo not given) the figure was 197 to 198 °C.
In turn, `C=CC1CC2=CCCCC2C2CCC3(C)C(O)CCC3C12` (stereo not given) showed a melting point of 117 to 121 °C.
As for `CN1CC(CCCO)CC2(OCCO)c3cccc4[nH]cc(c34)CC12` (stereo not given), the figure is 212 to 215 °C; as for `C=CCN1C(=O)C(C)N(c2ccc(OCc3ccccc3)cc2)C1=S` (stereo not given), 88 to 90 °C; as for `C#CCOc1ccc2c(C)cc(=O)oc2c1C(=O)C=Cc1cccnc1`, 203 to 205 °C.
Take `CC(=O)O[C@H]1CCCNC1=O`: the melting point lay in the range of 77 to 78 °C.
`O=C(O)c1cc(Br)cc(OCc2ccccc2Cl)c1OCc1ccccc1Cl` came in with a melting point of 186 to 187 °C.
The compound `Cc1c(O)cccc1C1=N[C@H]([C@H](O)CN2C[C@H]3CCCC[C@H]3C[C@H]2C(=O)NC(C)(C)C)CO1` yielded a melting point of 240 °C.
In the case of `CC1(C)SCc2ccccc2C1=NO`, the melting point lay in the range of 83 to 84 °C.
Consider `CC(C)CCCC(C)CCCC(C)CCOc1ccc(C(=O)O)o1` (stereo not given), for which the melting point was in the range of 70 to 73 °C.
Turning to `CC(=O)OCCc1cc2c(s1)SCCC1CC(=O)NN=C21` (stereo not given), the melting point was 106 to 108 °C.
With `CCn1cc(C=O)c2nc(N3CCN(Cc4ccccc4)CC3)ncc2c1=O`, the melting point was 152 °C.
With `CC1(CSc2ccc(N)c([N+](=O)[O-])c2)CC1(Cl)Cl` (stereo not given) the figure was 76 to 78 °C; with `CCOc1nnc(-c2ccc(C(F)(F)F)cc2)[nH]1`, 151 to 152 °C.
`C=CC[C@H](C(N)=O)[C@@H](CC(C)C)C(=O)NC1N=C(N(C)c2ccccc2)c2ccccc2N(C)C1=O` (stereo not given in full) gave a melting point of 267 to 268 °C.
With `CC(C)Cc1ccc2nc(Cl)c(S(N)(=O)=O)n2n1` the figure was 168 to 170 °C; with `Cc1c(C(=O)Nc2ccc(N3CCC(O)CC3)c(C#N)c2)cnn1-c1ccc(Cl)cc1`, 247 °C; with `O=c1nc(-c2ccccc2C(F)(F)F)sc2ccccc12`, 140 °C.
Take `CC(=O)c1cc2c(Br)ccc(OC(C)c3ccccc3)c2o1` (stereo not given): the melting point was in the range of 129 to 132 °C.
The compound `c1ccc2cc(-c3scc4c3OCCO4)ccc2c1` showed a melting point of 208 to 211 °C.
Turning to `CCOC(=O)C(O)c1cc(Cl)cc2cccnc12` (stereo not given), the melting point lay in the range of 121 to 124 °C.
For the compound `CC(C)(C)OC(=O)NC1CCCCc2cc(OCC3CCCCC3)ccc21` (stereo not given), the melting point fell in the range of 125 to 126 °C.
Compound `CCC(SN(C(=O)NC(=O)c1c(F)cccc1F)c1ccc(Oc2ccc(C(F)(F)F)cc2Cl)cc1F)C(=O)NC` (stereo not given) registered a melting point of 136 to 138 °C.
For `Fc1cccc(Cl)c1COc1cccnc1NC(=S)Nc1ccccc1`, the melting point was 143 to 145 °C.
As for `O=C(O)CNC1=Nc2ccccc2C(c2ccccc2)=NC1NC(=O)Nc1ccc(Cl)cc1` (stereo not given), the figure is 186 °C.
The compound `CC1CN=C(c2cccs2)NO1` (stereo not given) came in with a melting point of 70 to 72 °C.
In the case of `Cc1c(NC(=O)CC(C)(C)C)cc2c(c1C)OCC2(C)c1ccc(C(C)C)cc1` (stereo not given), the melting point lay in the range of 132 to 133 °C.
In turn, `COC(=O)c1cc(OC)cc(-c2cccc([N+](=O)[O-])c2)n1` came in with a melting point of 150 to 152 °C.
As for `Cc1ccnc(C(=O)c2[nH]c3cc(Cl)ccc3c2NC(=O)CN(C)C)c1`, the figure is 193 to 194 °C.
Regarding `Cc1nn(-c2ccccc2)c(-c2ccc(Cl)cc2)c1CC(=O)O`, the melting point lay within 174 to 177 °C.
As for `CCOC(=O)CNC(=O)c1cccs1`, the melting point is 82 to 83 °C.
Regarding `COc1ccc(CC[C@H]2CN(Cc3ccccc3)CCN2Cc2ccccc2)cc1`, the melting point was 88 to 91 °C.
As to `CN1Cc2cncn2-c2cccnc2C1=O`, the melting point was 199 to 201 °C.
For the compound `COc1ccc([N+](=O)[O-])c(Nc2cccc(O)c2)n1`, the melting point fell in the range of 156 to 158 °C.
Consider `CC1(C)CC(O)(C(F)(F)F)C(Nc2cccc3[nH]ncc23)c2ccc(Cl)c(O)c21` (stereo not given), for which the melting point fell in the range of 112 to 120 °C.
As to `COc1cc2c(N)nc(N3CCN(C(=O)C4COc5ccccc5O4)CC3)nc2c(OC)c1OC` (stereo not given), the melting point was 269 to 271 °C.
With `Nc1cc(CC(=O)O)cc2c1NC(C(F)(F)F)CC2` (stereo not given) the figure was 180 to 181 °C; with `CCCCn1nnc(-c2cccc(-c3ccnc4c(C(=O)c5cccs5)cnn34)c2)n1`, 90 °C; with `Nc1ccc2c3c(cccc13)C(=O)N(CCCCBr)C2=O`, 175 to 176 °C.
`CC(C)(C)OC(=O)N[C@H]1COC1=O`: the melting point was 120 to 122 °C.
Compound `FCCn1cc(-c2ccc3nnn(Cc4ccc5ncccc5c4)c3n2)cn1` yielded a melting point of 168 to 170 °C.
Consider `CCCCOc1cc2cc(C(=O)OC)c(C(=O)OC)c(-c3ccncc3)c2cc1OC`, for which the melting point was in the range of 149 to 151 °C.
Compound `CC(C)(C)c1nc(C(=O)O)c(Cl)c(N)c1F` yielded a melting point of 149 to 151 °C.
Take `Nc1nc(NC2CCCCCCC2)c2ncn(C3C=CC(CO)C3)c2n1` (stereo not given): the melting point fell in the range of 171 to 173 °C.
`CC(C)S(=O)(=O)NCc1ccc2ccn(C3CCN(CCc4ccc(F)cc4)CC3)c2c1` had a melting point of 90 to 92 °C.
`C[C@@H](O)[C@H]1CC[C@H]2[C@@H]3C=CC4=CC(=O)C=C[C@]4(C)[C@H]3CC[C@]12C` registered a melting point of 162 to 164 °C.
Compound `O=C(CS(=O)Cc1ccc2c(c1)OCO2)NO` (stereo not given) displayed a melting point of 206 °C.
Compound `O=C(c1ccc(OCCCCl)cc1)c1cccc2[nH]ccc12` registered a melting point of 86 °C.
`c1cc(Oc2ccc3c(c2)CCN3)ccn1` came in with a melting point of 116 to 118 °C.
The compound `COc1ccc(C(=O)Nc2ccc(S(N)(=O)=O)cc2)c(SSc2cc(OC)ccc2C(=O)Nc2ccc(S(N)(=O)=O)cc2)c1` came in with a melting point of 315 to 316 °C.
Take `C=Cc1ccc(CSCCOC(=O)COCC(=O)O)cc1`: the melting point lay within 63 to 68 °C.
In the case of `COc1nc(N)c2ncn(C3OC(CO)C(O)C3O)c2n1` (stereo not given), the melting point lay within 191 to 192 °C.
In turn, `COc1nc(C)nc2c1-c1ccc(Cl)cc1C(c1ccccc1)=NC2` had a melting point of 185 to 187 °C.
The compound `CN(C)C(=O)COC(=O)c1cc(-c2ccccc2)c(=O)n2c1-c1ccccc1C2` displayed a melting point of 177 to 179 °C.
In the case of `CN(C)CCn1c(-c2cccc(C(F)(F)F)c2)cc2c1CCSC2`, the melting point was 88.5 to 90 °C.
For `COc1cc2c(cc1OC)CN(CCCOc1ccc(NC(=O)c3ccc4ccccc4c3)cc1)CC2`, the melting point was 189 to 190 °C.
`Cc1ccc(NC(=O)C(C)(C)C)c(-c2ccnc(OCC(F)(F)F)n2)c1` showed a melting point of 126 to 128 °C.
`Cc1c(C2(c3cccs3)CCC(c3ccccc3)(N(C)C)CC2)[nH]c2ccccc12` (stereo not given) displayed a melting point of 202 to 205 °C.
Consider `CCCOc1ccc2nc(NC(=O)OC)sc2c1`, for which the melting point lay in the range of 178 to 180 °C.
`CCOc1cc(-c2cc(C(F)(F)F)n3cnc(-c4ccnc(C)c4)c3n2)ccc1C(F)(F)F` yielded a melting point of 177 °C.
Consider `COC(=O)c1cc2c3ccccc3nc(C)n2n1`, for which the melting point is 155 to 156 °C.
`Cc1cc(SCc2ccc(-c3ccc(C(F)(F)F)cn3)cc2)c2c(c1OCC(=O)O)CCCO2` came in with a melting point of 156 to 157 °C.
`CCNc1nc(C)c(-c2ccnc(Nc3cc(OC)cc(OC)c3)n2)s1`: the melting point lay within 235 to 237 °C.
With `COC(=O)CC(CCc1ccc(C)cc1)NC(C)=O` (stereo not given) the figure was 50 to 51 °C.
`Cc1ccc2c(c1)C=Cc1nc(C)oc1C2c1cn(Cc2cccc(C(=O)O)c2)c(=O)[nH]c1=S` (stereo not given) had a melting point of 180 °C.
Regarding `COC(=O)c1ccc(S(C)(=O)=O)c(-c2ccon2)c1Cl`, the melting point lay within 145 to 147 °C.
With `O=c1[nH]c(Cl)nc2ccccc12` the figure was 251 to 252 °C.
As for `C[C@H](NC(=O)OC(C)(C)C)C(=O)CCl`, the figure is 64 to 66.5 °C; as for `C[C@H]1C(=O)C[C@@H]2C[C@H]1OO[C@]2(C)/C=C\c1ccc(C(F)(F)F)cc1C(F)(F)F`, 124 °C.
With `CCCCC(Cn1cncn1)(C(=O)O)c1ccc(Cl)cc1` (stereo not given), the melting point lay within 169 to 171 °C.
Take `Cc1cc2c(nc1OCCCCN1CCN(c3cccc(Cl)c3Cl)CC1)NC(=O)CC2`: the melting point fell in the range of 138 to 139 °C.
Regarding `CCOC(=O)/C(C)=C/c1ccc(OC(C)C)cc1Oc1ncc(C(F)(F)F)cc1Cl`, the melting point lay in the range of 61 to 62 °C.
The compound `Nc1cccc(Cc2nnn[nH]2)c1` displayed a melting point of 140 °C.
With `Oc1nsc(Cc2ccccc2)n1` the figure was 50 °C; with `CCOC(=O)c1cc2cc(N(C)C)ccc2s1`, 95 to 96 °C; with `Cc1cc(C(=O)NC2CCCCC2)ccc1[N+](=O)[O-]`, 134 to 141 °C.
As to `Cc1cc(SC2=C(O)CC(CCc3ccc(O)cc3)(CCc3ccc(O)cc3)OC2=O)c(C(C)(C)C)cc1N`, the melting point lay within 140 to 145 °C.
With `CCn1c(-c2c(Cl)cccc2Cl)nc(-c2ccnc(OC)c2)c1-c1ccc(Cl)cc1` the figure was 138 to 140 °C; with `COc1ccc(Cn2cnc3c(-c4ccco4)ncnc32)cc1`, 175 to 176 °C; with `O=C(CCCN1CC=C(c2cccc3[nH]ccc23)CC1)c1ccc(F)cc1`, 155 °C.
Regarding `O=Cc1ccccc1-c1noc2ccccc12`, the melting point was 149 °C.
With `Nc1ccnc(CCl)n1` the figure was 125 to 128 °C; with `O=C(c1cccs1)c1cnn2c(-c3cccc(F)c3)ccnc12`, 235 to 237 °C.
